Non-standard residues stand in square brackets, D forms with d. Residues, ends and D or L forms follow the SMILES beside them. No end group written: not given here. *: point of attachment. Orn = NCCC[C@H](N)C(=O)O; Cbz = O=C(OCc1ccccc1)*; βAla = NCCC(=O)O; CH2F = FC*
Tests used:
[1] = biological target: T1, full-length Flag-CHD4 (Homo sapiens, UniProt Q14839); experiment: Biolayer interferometry (BLI) binding kinetics of peptides to CHD4; settings: N-biotinylated peptides immobilized, sequentially diluted full-length Flag-CHD4
T1 construct: made in house; host or cells: Sf9 (recombinant baculovirus)
Protocol: We next examined peptide binding sites on the CHD4 domain and measured affinity to further confirm the interaction. Multiple CHD4 deletion proteins were expressed and purified from recombinant baculovirus-infected Sf9 cells with Flag-agarose beads (FIG. 7a). An equal molecular amount of recombinant proteins was coated on an ELISA plate and increasing concentrations of biotinylated peptides were incubated. […] Binding affinity to the fill-length CHD4 was also calculated with Bio-Layer Interferometry (BLI). […] The N-biotinylated VGN73 or control peptides were first immobilized on a streptavidin-coated chip, and sequentially diluted full-length Flag-CHD4 proteins were applied. The interaction was then detected with interferometry.
To evaluate of binding kinetics of VGN73 and mutant peptide to CHD4, assays were carried out by biolayer interferometry (BLI) on Octet-Red 384 (ForteBio, CA, USA) at 30° C. with shaking at 1,000 RPM. Streptavidin (SA) tips (Sartorius, Goettingen, Germany) were dipped in 200 μL of biotinylated peptide (VGN73, mutant or TAT) solution (1 μM in 1× kinetic buffer) for the loading step. […] Binding kinetics was evaluated using a 1:1 binding model by ForteBio Data Analysis 8.1 software to obtain the dissociation constant KD.

[2] = biological target: T2, CHD4 (Homo sapiens, UniProt Q14839); experiment: CHD4 and LANA protein expression by IFA and western blotting in PEL cells; format: cell-based; settings: for recovery of full-length CHD4 by inhibitor pretreatment before VGN73: BC3 cells, Z-VAD-FMK 50 μM or bortezomib 25 nM 1 hour, then VGN73 18 μM 8 hours
T2 construct: endogenous in cells; host or cells: BC3, BCBL-1
Protocol: FIG. 3 Effect of VGN73 on CHD4 and LANA protein in tissue culture. FIG. 3. Amount of CHD4 and LANA protein expression was evaluated by IFA. BC3 cells were treated with VGN73 (18 μM) or mutant peptide (18 μM) for 24 hours. Then the cells were stained with the indicated antibodies. The scale is indicated in the panel. Cell volume. CHD4 and LANA signal intensity were compared. **; p<0.01, ***; p<0.001 versus the VGN73 group. FIG. 3b. Amount of CHD4 and LANA protein expression in total cell lysates was evaluated by western blotting. BC3 and BCBL-1 cells were treated with VGN73 at a concentration of IC50 or starved condition for 24 hours. The respective protein band was confirmed by immunoblotting with anti-CHD4 and anti-LANA antibody. FIG. 3c. Evaluating of caspase and proteasome in CHD4 cleavage by VGN73. BC3 cells were pretreated with pan-caspase inhibitor. Z-VAD-FMK (50 μM) or proteasome inhibitor, bortezomib (25 nM) for 1 hour, followed by treated with VGN73 (18 μM) for 8 hours. The respective protein band was confirmed by immunoblotting with anti-CHD4 antibody.
BC3 cells and BCBL-1 cells were treated with VGN73 at the concentration of IC50 for 24 hours. These cells were also treated with VGN73 in media without FBS. To evaluate the effect of VGN73 on CHD4 and LANA proteins in tissue culture, IFA and western blotting were carried out, and these gene expressions were evaluated by RT-qPCR. Moreover, BC3 cells were pretreated with pan-caspase inhibitor, Z-VAD-FMK (50 μM) or proteasome inhibitor, bortezomib (25 nM) for 1 hour, followed by treated with VGN73 (18 μM) for 8 hours. BC3 cells were pretreated with lysosome inhibitor, chloroquine (7.5 μM) for 1 hour, followed by treated with VGN73 (18 μM) for 24 hours. […]
To evaluate subcellular peptide localization, IFA was carried out (FIG. 2d). […] The exposure settings and image acquisition protocols were fixed in each imaging study to enable quantitative analysis. Mean LANA and CHD4 fluorescence (measured in arbitrary units, or A.U.) per cell was subsequently calculated using onboard software and/or NIH Image (FIG. 3a(b)). […]

[3] = test system: primary effusion lymphoma (PEL) cells (BC3, BCBL-1); format: cell-based
Protocol: FIG. 4 VGN73 inhibits cell growth on various cancer cell types and induces apoptosis and autophagy in BC3 cells. FIG. 4a. MT assays were performed with the indicated cell lines treated with various VGN73 and mutant peptide concentrations for 24 hours. The OD of mock-treated samples were set as 100%, and OD from detergent-treated cells were set as 0%. Mean percentage viability±SD was calculated for each treatment (n=3 samples/treatment). FIG. 4b. VGN73 induces apoptosis. BC3 cells were incubated with of VGN73 (18 μM) for 0, 1, 4, and 24 hours, followed by measurements of percentage apoptosis induction (Annexin V staining) by flow cytometry. Median percentage apoptosis was calculated for each treatment time (n=3 samples/treatment time) (a). […] Cleaved caspase 3 were calculated by normalizing to untreated sample, and untreated sample set as 100% (b). […] Median percentage apoptosis was calculated for each treatment time (n=3 samples/treatment) (a). […] ratios were calculated by normalizing to untreated sample, and untreated sample set as 100% (b). […] Cell viability were determined by MTT assay (n=5 samples/treatment). *; p<0.05. **; p<0.01 versus the control group, #; p<0.05 versus the Z-VAD-FMK group.
The cytotoxic activity of VGN73 and mutant peptide were measured using the MTT assay. […] The optical densities (ODs) were measured at 570 nm with a Benchmark Plus Microplate Spectrophotometer (Bio-Rad). […]

T2 sequence (Q14839 whole entry): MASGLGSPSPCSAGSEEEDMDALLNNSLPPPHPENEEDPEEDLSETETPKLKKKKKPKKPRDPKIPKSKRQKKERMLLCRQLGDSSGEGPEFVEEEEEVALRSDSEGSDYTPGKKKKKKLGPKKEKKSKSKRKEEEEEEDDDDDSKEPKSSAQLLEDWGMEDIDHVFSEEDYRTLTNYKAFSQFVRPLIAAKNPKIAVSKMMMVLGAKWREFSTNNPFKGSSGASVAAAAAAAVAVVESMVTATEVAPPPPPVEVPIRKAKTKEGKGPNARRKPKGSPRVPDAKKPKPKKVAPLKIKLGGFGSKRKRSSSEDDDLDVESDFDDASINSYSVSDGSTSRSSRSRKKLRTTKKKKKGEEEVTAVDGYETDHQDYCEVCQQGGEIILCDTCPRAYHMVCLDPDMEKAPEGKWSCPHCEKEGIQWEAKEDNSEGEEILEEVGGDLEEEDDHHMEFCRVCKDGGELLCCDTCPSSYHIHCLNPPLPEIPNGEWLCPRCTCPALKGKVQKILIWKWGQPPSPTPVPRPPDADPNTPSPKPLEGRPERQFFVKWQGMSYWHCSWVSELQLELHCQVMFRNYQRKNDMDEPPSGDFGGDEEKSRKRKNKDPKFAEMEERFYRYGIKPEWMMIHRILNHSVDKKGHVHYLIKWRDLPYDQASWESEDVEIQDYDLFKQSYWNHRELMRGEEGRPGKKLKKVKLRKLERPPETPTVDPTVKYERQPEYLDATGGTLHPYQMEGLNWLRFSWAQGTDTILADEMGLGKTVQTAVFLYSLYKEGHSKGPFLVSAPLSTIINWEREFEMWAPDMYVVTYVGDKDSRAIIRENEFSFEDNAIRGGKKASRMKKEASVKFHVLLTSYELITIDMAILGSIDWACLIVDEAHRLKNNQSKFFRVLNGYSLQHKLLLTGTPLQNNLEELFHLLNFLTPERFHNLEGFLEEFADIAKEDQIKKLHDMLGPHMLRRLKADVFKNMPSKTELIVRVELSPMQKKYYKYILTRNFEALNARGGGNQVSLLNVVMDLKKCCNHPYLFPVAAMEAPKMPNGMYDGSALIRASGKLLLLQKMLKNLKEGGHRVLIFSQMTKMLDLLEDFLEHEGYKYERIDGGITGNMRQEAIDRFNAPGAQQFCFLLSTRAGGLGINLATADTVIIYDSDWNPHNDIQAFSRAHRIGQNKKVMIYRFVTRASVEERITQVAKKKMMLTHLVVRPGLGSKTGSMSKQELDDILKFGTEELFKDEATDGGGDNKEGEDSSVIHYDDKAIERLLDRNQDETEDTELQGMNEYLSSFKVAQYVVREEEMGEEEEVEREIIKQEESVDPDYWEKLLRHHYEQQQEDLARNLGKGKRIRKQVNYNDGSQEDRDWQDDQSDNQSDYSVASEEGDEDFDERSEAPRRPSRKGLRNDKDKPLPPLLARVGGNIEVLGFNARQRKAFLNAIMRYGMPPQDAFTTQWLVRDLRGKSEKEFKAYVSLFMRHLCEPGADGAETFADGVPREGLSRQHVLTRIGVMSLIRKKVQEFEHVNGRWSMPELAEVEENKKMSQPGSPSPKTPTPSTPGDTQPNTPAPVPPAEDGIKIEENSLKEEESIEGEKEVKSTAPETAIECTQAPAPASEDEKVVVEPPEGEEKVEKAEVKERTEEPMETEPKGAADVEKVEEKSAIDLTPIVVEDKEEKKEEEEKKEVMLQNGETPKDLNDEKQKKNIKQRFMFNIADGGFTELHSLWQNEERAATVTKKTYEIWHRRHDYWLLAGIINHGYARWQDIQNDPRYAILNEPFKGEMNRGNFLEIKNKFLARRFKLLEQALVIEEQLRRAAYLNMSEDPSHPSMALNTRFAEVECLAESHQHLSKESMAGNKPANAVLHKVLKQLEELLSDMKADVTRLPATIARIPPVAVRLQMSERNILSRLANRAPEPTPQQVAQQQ
T1 sequence (Q14839 whole entry): as above

Molecule | binding to CHD4 by BLI [1] | CHD4 cleavage (western blotting, total cell lysates) ([2]; BC3 and BCBL-1 cells, IC50 concentration, 24 hours) | cancer cell death in vitro tissue culture [3] | recovery of full-length CHD4 by inhibitor pretreatment before VGN73 [2] | rescue from VGN73 cell death by Z-VAD-FMK pretreatment (MTT) ([3]; BC3 and BCBL-1, Z-VAD-FMK 40 μM 1 hr, VGN73 18 or 13 μM)
{d-Arg}KKRR{ORN]RRR{β-Ala} (RKKRRXRRRA; d-Arg, ornithine, beta-Ala non-natural residues; Description of sequence: modified TAT amino acid sequence; SITE 1 d-arginine; MOD_RES 6 ORN; MOD_RES 10 beta-alanine) | not mutant or TAT alone binds to CHD4 |  |  |  | 
{d-Arg}KKRR{ORN}RRR{β-Ala}AKHAVISAGNDPYGLKK ([dR]KKRR[Orn]RRR[βAla]AKHAVISAGNDPYGLKK) [mutant peptide, mutant peptide with three amino acid changes at conserved amino acids] | mutations eliminated the interaction | did not have such effects | not mutant peptide |  | 
CC(C)C[C@H](NC(=O)[C@H](Cc1ccccc1)NC(=O)c1cnccn1)B(O)O [proteasome inhibitor, bortezomib] |  |  |  | not a proteasome inhibitor | 
COC(=O)C[C@H](NC(=O)[C@H](C)NC(=O)[C@@H](NC(=O)OCc1ccccc1)C(C)C)C(=O)CF [Z-VAD-FMK] (Cbz-Val-Ala-Asp(OMe)-CH2F) |  |  |  | recovered full-length CHD4 | partially rescued BC3 and BCBL-1 from cell death

Source: patent US20250282834A1, “PEPTIDE INHIBITORS FOR CHROMODOMAIN HELICASE DNA BINDING PROTEIN 4 (CHD4)” (THE REGENTS OF THE UNIVERSITY OF CALIFORNIA, priority 2022, published 2025)
